Converted amounts (≈) assume the structure as drawn.
Test: Solubility in ethanol
Assay type: physicochemical
Settings: organic solvent or mixture
Method: In preferred embodiments, the solvent is ethanol. […] Similarly, preferred kinase inhibitors, such as apatinib, axitinib, cabozantinib, cediranib, crenolanib, foretinib, lenvatinib, linifanib, masitinib, motesanib, nintedanib, pazopanib, pegaptanib, regorafenib, semaxanib, sorafenib, sunitinib, tivozanib, toceranib, vandetanib, vatalanib, bafetinib, bosutinib, dasatinib, imatinib, nilotinib, ponatinib, radotinib, and SU6656, are generally soluble in ethanol, e.g., at 1.0 mg/mL or higher.

solubility: ~3300 µg/mL (≈ 7.1 mM)
Compound: CNC(=O)c1cc(Oc2ccc(NC(=O)Nc3ccc(Cl)c(C(F)(F)F)c3)cc2)ccn1 [sorafenib]

Reference: US20160324836A1, “INJECTABLE DEPOT FORMULATIONS” (pSivida US.Inc., priority 2015, published 2016)
